Experimental data taken from ChEMBL document CHEMBL1201862, “PubChem BioAssay data set” (2004).
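All cell lines were grown in 96-well plates and treated with compound for 48 hours. Here, GI50 denotes the concentration required for 50% inhibition of growth.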 Activity calls are given as the source filed them. Cut-off read from the data, not from the text of the source: active = GI50 up to about 1.1 µM and inactive = higher.

Legend:
Experiment in all cases: inhibition of tumour cell growth, NCI panel, 48 h
[1] = tested on: HCT-15
[2] = tested on: ACHN
[3] = tested on: SK-MEL-2
[4] = tested on: HOP-92
[5] = tested on: MCF7
[6] = tested on: OVCAR-3
[7] = tested on: PC-3
[8] = tested on: NCI-H226
[9] = tested on: NCI-H522
[10] = tested on: HCC 2998
[11] = tested on: SK-OV-3
[12] = tested on: OVCAR-4
[13] = tested on: SF-539
[14] = tested on: NCI-H460
[15] = tested on: CAKI-1
[16] = tested on: DU-145
[17] = tested on: EKVX
[18] = tested on: Hs-578T
[19] = tested on: K562
[20] = tested on: A498

Structure (SMILES) | GI50 [1] | GI50 [2] | GI50 [3] | GI50 [4] | GI50 [5] | GI50 [6] | GI50 [7] | GI50 [8] | GI50 [9] | GI50 [10] | GI50 [11] | GI50 [12] | GI50 [13] | GI50 [14] | GI50 [15] | GI50 [16] | GI50 [17] | GI50 [18] | GI50 [19] | GI50 [20]
Cc1csc(NNC(N)=O)n1 | > 100 µM | > 100 µM (inactive) | > 100 µM (inactive) | > 100 µM (inactive) | > 100 µM (inactive) | > 100 µM (inactive) | > 100 µM (inactive) | > 100 µM (inactive) | > 100 µM (inactive) | > 100 µM (inactive) | > 100 µM (inactive) | > 100 µM (inactive) | > 100 µM (inactive) | > 100 µM (inactive) | > 100 µM (inactive) | > 100 µM (inactive) | > 100 µM (inactive) | > 100 µM (inactive) |  | 
c1cc(-c2ccc(-c3ccsc3)s2)cs1 | > 100 µM | 35.9 µM (inactive) |  | > 100 µM (inactive) | 50.5 µM (inactive) | > 100 µM (inactive) |  | 47.5 µM (inactive) | > 100 µM (inactive) | > 100 µM (inactive) | > 100 µM (inactive) | 18.1 µM (inactive) | 36.4 µM (inactive) | > 100 µM (inactive) | 45.4 µM (inactive) | > 100 µM (inactive) | 85.5 µM (inactive) | 40.5 µM (inactive) | > 100 µM (inactive) | 46.6 µM (inactive)
O=C(CNS(=O)(=O)Cc1ccccc1)NNc1ccccc1 | > 100 µM | > 100 µM (inactive) | > 30 µM (inactive) | > 100 µM (inactive) | > 74.8 µM (inactive) | 49.4 µM (inactive) | > 100 µM (inactive) | > 100 µM (inactive) |  | > 100 µM (inactive) | > 100 µM (inactive) | > 100 µM (inactive) | 3.05 µM (inactive) | 25.1 µM (inactive) | 5.6 µM (inactive) | > 100 µM (inactive) | > 69.5 µM (inactive) | > 100 µM (inactive) | 2.5 µM (inactive) | 
C[C@H]1S[C@H](c2c(F)cccc2F)n2c1nc1ccccc12 | 47 µM | 55.1 µM (inactive) | 15.1 µM (inactive) |  | 33.8 µM (inactive) | 24.2 µM (inactive) | 33.7 µM (inactive) | > 100 µM (inactive) |  | 64.7 µM (inactive) | 38.4 µM (inactive) | 45.5 µM (inactive) |  | 25.4 µM (inactive) | 74 µM (inactive) | > 100 µM (inactive) | 66.2 µM (inactive) | 88.7 µM (inactive) | 35.3 µM (inactive) | 
COc1cccc2c(Nc3ccc(S(=O)(=O)N=C(N)N)cc3)c3ccc([N+](=O)[O-])cc3nc12 | 30 µM | 10.2 µM (inactive) | 14.3 µM (inactive) | 12.3 µM (inactive) | 4.09 µM (inactive) | 20.4 µM (inactive) | 18.7 µM (inactive) | 38.8 µM (inactive) | 6.71 µM (inactive) | 3.23 µM (inactive) | 28.6 µM (inactive) | 37.7 µM (inactive) | 4.85 µM (inactive) | 4.32 µM (inactive) | 5.57 µM (inactive) | 8.67 µM (inactive) | 26.2 µM (inactive) |  | 6 µM (inactive) | 19.1 µM (inactive)
Cc1ccc(-c2c(C#N)c(-c3ccc(Cl)cc3)c(C#N)c(=O)n2NS(=O)(=O)c2ccc(C)cc2)cc1 | 28.2 µM | 36.2 µM (inactive) | 14 µM (inactive) | 19.5 µM (inactive) | 15.2 µM (inactive) |  | 17.4 µM (inactive) | 39.8 µM (inactive) | 23.1 µM (inactive) | 19.5 µM (inactive) | 22.1 µM (inactive) | 26.6 µM (inactive) | 18.7 µM (inactive) | 27.4 µM (inactive) | 34.1 µM (inactive) |  | 47.6 µM (inactive) |  | 33.9 µM (inactive) | 35 µM (inactive)
Cc1ccc(C(=O)c2[nH]c(Nc3ccc(Cl)cc3)c(C(=S)Nc3ccccc3)c2N)cc1 | 10.7 µM | 3.27 µM (inactive) | 14.5 µM (inactive) | 12.9 µM (inactive) | 12.5 µM (inactive) | 11.3 µM (inactive) | 6.84 µM (inactive) | 14 µM (inactive) | 9.68 µM (inactive) | 2.29 µM (inactive) | 14.2 µM (inactive) | 1.97 µM (inactive) | 5.3 µM (inactive) | 4.2 µM (inactive) | 8.67 µM (inactive) | 8.05 µM (inactive) | 5.48 µM (inactive) |  | 7.38 µM (inactive) | 13.6 µM (inactive)
CCCCCCCC/C=C\CCCCCCCCNc1ccn(C2OC(COP(=O)(O)OC3CC(n4cc(F)c(=O)[nH]c4=O)OC3CO)C(O)C2O)c(=O)n1 (stereo not drawn) | 2.48 µM | 0.0177 µM (active) | > 100 µM (inactive) | 7.93 µM (inactive) | < 0.0394 µM (active) | > 87.5 µM (inactive) | 28.7 µM (inactive) | > 28.4 µM (inactive) | > 53.8 µM (inactive) | > 100 µM (inactive) | 14.6 µM (inactive) | > 91.8 µM (inactive) | < 0.0484 µM (active) |  | 2.09 µM (inactive) | 0.159 µM (active) | > 100 µM (inactive) | > 100 µM (inactive) | 2.52 µM (inactive) | 
